Where a name gives a salt, the structure may show the parent alone.
Target: Recombinant human LSD1 (Homo sapiens, UniProt O60341)
Assay: LSD1 inhibition assay (HTRF LSD1 Histone H3K4 mono-demethylation assay, me1->me0)
Assay type: biochemical
Conditions: 20 nM recombinant human LSD1, 95 nM H3K4(me1) biotinylated peptide, 15 min preincubation, 60 min at 25° C., read-out: LSD1 inhibition IC50 (nM range)
Method in brief: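 HTRF demethylation (me1->me0) read-out: streptavidin-XL665 and anti-H3K4me0 cryptate added after reaction, ratio measured after 90 min dark. Reaction: 95 nM H3K4me1 biotin-peptide, 20 nM LSD1 (15-min compound pre-incubation), 60 min, 25 °C, buffer pH 8.5 plus FAD and DTT; 4-parameter logistic IC50.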

## N#Cc1ccc(-c2cc(C3CNCCO3)ccc2N2CCCCC2)cc1F (stereo not shown) [Example 168, 3-fluoro-5′-(morpholin-2-yl)-2′-(piperidin-1-yl)-[1,1′-biphenyl]-4-carbonitrile]
  IC50: 100 to 1000 nM

## N#Cc1ccc(-c2cccc(CN3[C@H]4CC[C@@H]3[C@H](N)C4)c2-c2ccns2)cc1 (single isomer, unassigned) [Example 187]
  IC50: 10 to 25 nM

## Cc1cccnc1-c1ccc(CN2[C@@H]3CC[C@H]2[C@@H](N)C3)cc1-c1ccc(C#N)c(F)c1 (racemic) [Example 257, 5'-{[(1S,2S,4R)-2-amino-7-azabicyclo[2.2.1]heptan-7-yl]methyl}-3-fluoro-2'-(3-methylpyridin-2-yl)-[1,1'-biphenyl]-4-carbonitrile]
  IC50: 10 to 25 nM

## CC1CC1c1c(CN2[C@@H]3CC[C@H]2[C@@H](N)C3)cccc1-c1ccc(C#N)c(F)c1 (mixture of isomers) [Example 247, 3'-{[(1S,2S,4R)-2-amino-7-azabicyclo[2.2.1]heptan-7-yl]methyl}-3-fluoro-2'-(2-methylcyclopropyl)-[1,1'-biphenyl]-4-carbonitrile]
  IC50: 25 to 100 nM

## N#Cc1ccc(-c2cccc(CN3C[C@]4(N)CC[C@H]3C4)c2-c2cnco2)cc1F [Example 335, 3'-{[(1S,4S)-4-amino-2-azabicyclo[2.2.1]heptan-2-yl]methyl}-3-fluoro-2'-(1,3-oxazol-5-yl)-[1,1'-biphenyl]-4-carbonitrile]
  IC50: < 10 nM

## N#Cc1ccc(-c2cccc(CC3CNCCO3)c2-c2cnccn2)cc1F (stereo not shown) [Example 128, 3-fluoro-3′-[(morpholin-2-yl)methyl]-2′-(pyrazin-2-yl)-[1,1′-biphenyl]-4-carbonitrile]
  IC50: 25 to 100 nM

## N#Cc1ccc(-c2cc(CC3CNCCO3)ccc2C2CC2)cc1F (stereo not shown) [Example 141, 2′-cyclopropyl-3-fluoro-5′-[(morpholin-2-yl)methyl]-[1,1′-biphenyl]-4-carbonitrile]
  IC50: 100 to 1000 nM

## COC1CCN(c2ccc(CN3[C@@H]4CC[C@H]3[C@@H](N)C4)cc2-c2ccc(C#N)c(F)c2)CC1 (racemic) [Example 260, 5'-{[(1S,2S,4R)-2-amino-7-azabicyclo[2.2.1]heptan-7-yl]methyl}-3-fluoro-2'-(4-methoxypiperidin-1-yl)-[1,1'-biphenyl]-4-carbonitrile]
  IC50: 10 to 25 nM

## COCC1CCN(c2ccc(CN3C[C@]4(N)CC[C@H]3C4)cc2-c2ccc(C#N)c(F)c2)CC1 [Example 216, 5'-{[(1S,4S)-4-amino-2-azabicyclo[2.2.1]heptan-2-yl]methyl}-3-fluoro-2'-[4-(methoxymethyl)piperidin-1-yl]-[1,1'-biphenyl]-4-carbonitrile]
  IC50: < 10 nM

## N#Cc1ccc(-c2cccc(CN3CCC4(CC3)CNC4)c2Cl)cc1F [Example 339, 2'-chloro-3'-({2,7-diazaspiro[3.5]nonan-7-yl}methyl)-3-fluoro-[1,1'-biphenyl]-4-carbonitrile]
  IC50: 25 to 100 nM

## Cn1nc2ccc(-c3ccc(CN4C[C@]5(N)CC[C@H]4C5)cc3-c3ccc(C#N)c(F)c3)cc2c1Cl [Example 263, 5'-{[(1S,4S)-4-amino-2-azabicyclo[2.2.1]heptan-2-yl]methyl}-2'-(3-chloro-2-methyl-2H-indazol-5-yl)-3-fluoro-[1,1'-biphenyl]-4-carbonitrile]
  IC50: < 10 nM

## CC1(N)CCCN(Cc2cccc(-c3ccc(C#N)c(F)c3)c2Cl)C1 (stereo not shown) [Example 286, 3'-[(3-amino-3-methylpiperidin-1-yl)methyl]-2'-chloro-3-fluoro-[1,1'-biphenyl]-4-carbonitrile]
  IC50: > 1000 nM

## Cn1ncc2cc(-c3ccc(CC4CNCCO4)cc3-c3ccc(C#N)c(F)c3)cnc21 (stereo not shown) [Example 56, 3-fluoro-2′-{1-methyl-1H-pyrazolo[3,4-b]pyridin-5-yl}-5′-[(morpholin-2-yl)methyl]-[1,1′-biphenyl]-4-carbonitrile]
  IC50: 25 to 100 nM

## C[C@@H]1[C@@H](N)CCCN1Cc1cccc(-c2ccc(C#N)c(F)c2)c1Cl [Example 329, 3'-{[(2R,3S)-3-amino-2-methylpiperidin-1-yl]methyl}-2'-chloro-3-fluoro-[1,1'-biphenyl]-4-carbonitrile]
  IC50: > 1000 nM

## N#Cc1ccc(-c2cc(CN3[C@@H]4CC[C@H]3[C@@H](N)C4)ccc2N2CC3(CC3)C2)cc1F (racemic) [Example 251, 5'-{[(1S,2S,4R)-2-amino-7-azabicyclo[2.2.1]heptan-7-yl]methyl}-2'-{5-azaspiro[2.3]hexan-5-yl}-3-fluoro-[1,1'-biphenyl]-4-carbonitrile]
  IC50: 25 to 100 nM

## COCc1ncc(-c2ccc(CC3CNCCO3)cc2-c2ccc(C#N)c(F)c2)o1 (stereo not shown) [Example 130, 3-fluoro-2′-[2-(methoxymethyl)-1,3-oxazol-5-yl]-5′-[(morpholin-2-yl)methyl]-[1,1′-biphenyl]-4-carbonitrile]
  IC50: > 1000 nM

## N#Cc1ccc(-c2cc(CC3CNCCO3)ccc2N2CCC3(CCOC3)CC2)cc1F (stereo not shown) [Example 70, 3-fluoro-5′-[(morpholin-2-yl)methyl]-2′-{2-oxa-8-azaspiro[4.5]decan-8-yl}-[1,1′-biphenyl]-4-carbonitrile]
  IC50: 25 to 100 nM

## N#Cc1ccc(-c2cc(CN3[C@@H]4CC[C@H]3[C@@H](N)C4)ccc2CC2COC2)cc1F (racemic) [Example 246, 5'-{[(1S,2S,4R)-2-amino-7-azabicyclo[2.2.1]heptan-7-yl]methyl}-3-fluoro-2'-[(oxetan-3-yl)methyl]-[1,1'-biphenyl]-4-carbonitrile]
  IC50: 100 to 1000 nM

## C[C@]1(N)CCN(Cc2cccc(-c3ccc(C#N)c(F)c3)c2C2CC2)C1 [Example 202, 3'-{[(3S)-3-amino-3-methylpyrrolidin-1-yl]methyl}-2'-cyclopropyl-3-fluoro-[1,1'-biphenyl]-4-carbonitrile]
  IC50: 25 to 100 nM

## N#Cc1ccc(-c2cccc(CN3[C@@H]4CC[C@H]3[C@@H](N)C4)c2C2=CCOC2)cc1F (racemic) [Example 303, 3'-{[(1S,2S,4R)-2-amino-7-azabicyclo[2.2.1]heptan-7-yl]methyl}-2'-(2,5-dihydrofuran-3-yl)-3-fluoro-[1,1'-biphenyl]-4-carbonitrile]
  IC50: < 10 nM

## N#Cc1ccc(-c2cccc(CN3[C@@H]4CC[C@H]3[C@@H](N)C4)c2-c2cccs2)cc1F (racemic) [Example 243, 3'-{[(1S,2S,4R)-2-amino-7-azabicyclo[2.2.1]heptan-7-yl]methyl}-3-fluoro-2'-(thiophen-2-yl)-[1,1'-biphenyl]-4-carbonitrile]
  IC50: 25 to 100 nM

## CC(c1ccc(N2CCC2)c(-c2ccc(C#N)c(F)c2)c1)C1CNCCO1 (stereo not shown) [Example 144, 2′-(azetidin-1-yl)-3-fluoro-5′-[1-(morpholin-2-yl)ethyl]-[1,1′-biphenyl]-4-carbonitrile]
  IC50: > 1000 nM

## N#Cc1ccc(-c2cc(CC3CNCCO3)ccc2-c2ccn3cnnc3c2)cc1F (stereo not shown) [Example 157, 3-fluoro-5′-[(morpholin-2-yl)methyl]-2′-{[1,2,4]triazolo[4,3-a]pyridin-7-yl}-[1,1′-biphenyl]-4-carbonitrile]
  IC50: > 1000 nM

## COc1ccc(-c2ccc(CC3CNCCO3)cc2-c2ccc(C#N)c(F)c2)cc1F (stereo not shown) [Example 98, 3-fluoro-2′-(3-fluoro-4-methoxyphenyl)-5′-[(morpholin-2-yl)methyl]-[1,1′-biphenyl]-4-carbonitrile]
  IC50: 100 to 1000 nM

## N#Cc1ccc(-c2cccc(CN3CC4CCC(C3)N4)c2C2CC2)cc1F [Example 210, 2'-cyclopropyl-3'-({3,8-diazabicyclo[3.2.1]octan-3-yl}methyl)-3-fluoro-[1,1'-biphenyl]-4-carbonitrile]
  IC50: 10 to 25 nM

## N#Cc1ccc(-c2cc(CN3[C@@H]4CC[C@H]3[C@@H](N)C4)ccc2OCC2CC2)cc1F (racemic) [Example 311, 5'-{[(1S,2S,4R)-2-amino-7-azabicyclo[2.2.1]heptan-7-yl]methyl}-2'-(cyclopropylmethoxy)-3-fluoro-[1,1'-biphenyl]-4-carbonitrile]
  IC50: 10 to 25 nM

## N#Cc1ccc(-c2cccc(C[C@H]3CNCCO3)c2-c2ccns2)cc1 (single isomer, unassigned) [Example 5, hydrochloride]
  IC50: 10 to 25 nM

## N#Cc1ccc(-c2cc(CN3[C@@H]4CC[C@H]3[C@@H](N)C4)ccc2COC(F)F)cc1F (racemic) [Example 313, 5'-{[(1S,2S,4R)-2-amino-7-azabicyclo[2.2.1]heptan-7-yl]methyl}-2'-[(difluoromethoxy)methyl]-3-fluoro-[1,1'-biphenyl]-4-carbonitrile]
  IC50: 10 to 25 nM

## N#Cc1ccc(-c2cc(CC3CNCCO3)ccc2N2CC3(CCOC3)C2)cc1F (stereo not shown) [Example 127]
  IC50: 100 to 1000 nM

## N#Cc1ccc(-c2cc(F)cc(C[C@@H]3CNCCO3)c2-c2ccns2)cc1F (single isomer, unassigned) [Example 14]
  IC50: 10 to 25 nM

## CC1(C)CN(c2ccc(CN3[C@@H]4CC[C@H]3[C@@H](N)C4)cc2-c2ccc(C#N)c(F)c2)C1 (racemic) [Example 206, 5'-{[(1S,2S,4R)-2-amino-7-azabicyclo[2.2.1]heptan-7-yl]methyl}-2'-(3,3-dimethylazetidin-1-yl)-3-fluoro-[1,1'-biphenyl]-4-carbonitrile]
  IC50: 10 to 25 nM

## CN1CCN(Cc2ccc(N3CCC3)c(-c3ccc(C#N)c(F)c3)c2)CC1 [Example 296, 2'-(azetidin-1-yl)-3-fluoro-5'-[(4-methylpiperazin-1-yl)methyl]-[1,1'-biphenyl]-4-carbonitrile]
  IC50: > 1000 nM

## N#Cc1ccc(-c2cc(CC3CNCCO3)ccc2OC[C@@H]2CCCOC2)cc1F (stereo partly drawn) [Example 72, 3-fluoro-5′-[(morpholin-2-yl)methyl]-2′-{[(3R)-oxa-3-yl]methoxy}-[1,1′-biphenyl]-4-carbonitrile]
  IC50: 100 to 1000 nM

## N#Cc1ccc(-c2cccc(CN3[C@@H]4CC[C@H]3[C@@H](N)C4)c2OC(F)F)cc1F (single isomer, unassigned) [Example 183]
  IC50: < 10 nM
